Experimental data: BindingDB's records for doi:10.1016/j.ejmech.2021.113795 (Hong Kong Polytechnic University, 2021)

Assays:
[1] = target: ATP-dependent translocase ABCB1 (Homo sapiens, UniProt P08183); test: Inhibition of P-glycoprotein in human LCC6MDR cells assessed as reversal fold by measuring reduction in paclitaxel by measuring paclitaxel IC50 at 1 uM after 5 days by Cell Titer-Glo luminescence assay
[2] = Inhibition of MRP1 in human 2008/MRP1 cells assessed as reversal of doxorubicin resistance by measuring doxorubicin IC50 at 1 uM after 5 days by Cell Titer-Glo luminescence assay

ATP-dependent translocase ABCB1, sequence (P08183 whole entry): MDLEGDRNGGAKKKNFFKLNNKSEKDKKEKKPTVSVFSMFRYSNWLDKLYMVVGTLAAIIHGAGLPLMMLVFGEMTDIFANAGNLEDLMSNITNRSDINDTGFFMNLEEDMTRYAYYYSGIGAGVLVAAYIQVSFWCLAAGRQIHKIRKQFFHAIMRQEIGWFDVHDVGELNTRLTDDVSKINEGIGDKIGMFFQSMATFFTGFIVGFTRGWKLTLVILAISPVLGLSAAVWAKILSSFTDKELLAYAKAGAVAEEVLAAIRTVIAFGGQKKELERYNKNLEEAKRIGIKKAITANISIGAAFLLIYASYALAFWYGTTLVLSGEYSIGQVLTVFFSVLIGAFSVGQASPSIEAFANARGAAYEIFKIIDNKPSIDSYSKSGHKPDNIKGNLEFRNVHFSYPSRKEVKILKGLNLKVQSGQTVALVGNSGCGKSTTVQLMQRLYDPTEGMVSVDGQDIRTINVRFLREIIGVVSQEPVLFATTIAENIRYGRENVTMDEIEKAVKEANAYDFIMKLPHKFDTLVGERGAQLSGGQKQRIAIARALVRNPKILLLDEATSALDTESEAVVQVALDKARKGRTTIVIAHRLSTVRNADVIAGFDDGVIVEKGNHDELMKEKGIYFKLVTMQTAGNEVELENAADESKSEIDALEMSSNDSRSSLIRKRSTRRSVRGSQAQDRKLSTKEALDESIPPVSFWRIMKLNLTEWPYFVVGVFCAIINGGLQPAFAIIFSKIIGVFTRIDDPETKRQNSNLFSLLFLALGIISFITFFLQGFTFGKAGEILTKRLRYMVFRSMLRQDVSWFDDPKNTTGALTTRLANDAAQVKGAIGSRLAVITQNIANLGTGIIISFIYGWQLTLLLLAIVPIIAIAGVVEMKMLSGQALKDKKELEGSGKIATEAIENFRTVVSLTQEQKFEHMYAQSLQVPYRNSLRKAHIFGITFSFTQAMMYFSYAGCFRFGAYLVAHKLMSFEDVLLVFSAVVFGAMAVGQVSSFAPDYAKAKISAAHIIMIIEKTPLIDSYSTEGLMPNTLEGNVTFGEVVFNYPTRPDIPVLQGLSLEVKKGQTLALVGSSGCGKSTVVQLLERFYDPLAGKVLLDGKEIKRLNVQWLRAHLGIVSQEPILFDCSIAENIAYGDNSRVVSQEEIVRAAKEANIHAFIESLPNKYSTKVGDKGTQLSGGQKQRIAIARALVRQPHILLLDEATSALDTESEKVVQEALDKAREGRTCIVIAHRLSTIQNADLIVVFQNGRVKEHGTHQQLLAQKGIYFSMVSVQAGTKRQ

For `COc1cc(OC)c2c(c1)O[C@H](c1ccc(OC)c(OC)c1)[C@H](OC(=O)c1ccc(F)c(NC(=O)c3cc(OC)c(OC)c(OC)c3)c1)C2`, the “IC50” value [1] was 2.2 nM and the IC50 [2] was 341 nM.
For `COc1cc(OC)c2c(c1)O[C@H](c1ccc(OC)c(OC)c1)[C@@H](OC(=O)c1ccc(F)c(NC(=O)c3cc(OC)c(OC)c(OC)c3)c1)C2`, the “IC50” value [1] was 1.8 nM and the IC50 [2] was 354 nM.
